Like-named read-outs stand apart in the source and are kept apart here.
What was measured:
IL-10 = assay: Inhibition of IL-10 production by mouse peritoneal macrophages (ELISA); type: cell-based, mice; details: Macrophage, 48 hours, read-out: Inhibitory rate (%) IL-10; for inhibition at 10 µg/mL: 10 μg/ml; for inhibition at 50 µg/mL: 50 μg/ml; for inhibition at 100 µg/mL: 100 μg/ml; for inhibition at 1 µg/mL: 1 μg/ml; for inhibition at 5 µg/mL: 5 μg/ml
Description: (§1) C57BL/6CrSlc male mice were intraperitoneally injected with 2.0 ml of 3% Brewer tioglycolate medium. Three days later, macrophages were collected from the abdominal cavity with 5.0 ml Hank's balanced salt solution, and then equally divided into each well of a 48-well plate using RPMI 1640 medium supplemented with 10% FBS (Fetal Bovine Serum), followed by incubation in a CO2 incubator for 1 hour. After the macrophages adhered to the walls of the plate, they were incubated for 48 hours in the presence of a test compound with different concentrations. Following the incubation, the supernatant was collected from each well, assayed for IL-6, IL-10 and L-12 by ELISA to determine inhibitory rates against the production of these interleukins.

IL-12 = assay: Inhibition of IL-12 production by mouse peritoneal macrophages (ELISA); type: cell-based, mice; details: Macrophage, read-out: Inhibitory rate (%) IL-12; for inhibition at 10 µg/mL: 10 μg/ml; for inhibition at 50 µg/mL: 50 μg/ml; for inhibition at 100 µg/mL: 100 μg/ml; for inhibition at 1 µg/mL: 1 μg/ml; for inhibition at 5 µg/mL: 5 μg/ml; for inhibition at 10 µM: 10 μM/L
Description: as §1

IL-6 = assay: Inhibition of IL-6 production by mouse peritoneal macrophages (ELISA); type: cell-based, mice; details: Macrophage, 48 hours, read-out: Inhibitory rate (%) IL-6; for inhibition at 10 µg/mL: 10 μg/ml; for inhibition at 50 µg/mL: 50 μg/ml; for inhibition at 100 µg/mL: 100 μg/ml; for inhibition at 1 µg/mL: 1 μg/ml; for inhibition at 5 µg/mL: 5 μg/ml
Description: as §1

[1] = tested on: Rats with Minimal Change Nephrosis; assay: Inhibitory effects on urinary proteins in rats with minimal change nephrosis (Puromycin Aminonucleoside); type: in vivo; details: S.D. male rats, PA 50 mg/kg i.v., test drug 2 mg/kg/day from day 6 to day 11, assayed at day 11
Description: Six week old S.D. male rats were intravenously injected with Puromycin Aminonucleoside (PA; SIGMA)at a dose of 50 mg/kg so as to develop nephrosis. Six days after PA treatment, the rats were administered with a test drug at a dose of 2 mg/kg/day by day 11. Each rat was assayed for an excreted urinary protein level at day 11 to determine an inhibitory rate.

Thromboxane A2 Synthase = biological target: T1, Thromboxane A2 Synthase (Rattus norvegicus, UniProt P49430); assay: Inhibitory effect on thromboxane A2 synthase: TXB2 in rat platelet rich plasma; type: cell-based, rats; details: 10 μmol/l, rat PRP
T1 construct: centrifuged at 1,300 rpm for 7 minutes to obtain platelet rich plasma (PRP); from tissue; host or cells: platelet rich plasma (washed platelets) from the abdominal aorta blood of Sprague-Dawley rats
T1 sequence (P49430 1-533): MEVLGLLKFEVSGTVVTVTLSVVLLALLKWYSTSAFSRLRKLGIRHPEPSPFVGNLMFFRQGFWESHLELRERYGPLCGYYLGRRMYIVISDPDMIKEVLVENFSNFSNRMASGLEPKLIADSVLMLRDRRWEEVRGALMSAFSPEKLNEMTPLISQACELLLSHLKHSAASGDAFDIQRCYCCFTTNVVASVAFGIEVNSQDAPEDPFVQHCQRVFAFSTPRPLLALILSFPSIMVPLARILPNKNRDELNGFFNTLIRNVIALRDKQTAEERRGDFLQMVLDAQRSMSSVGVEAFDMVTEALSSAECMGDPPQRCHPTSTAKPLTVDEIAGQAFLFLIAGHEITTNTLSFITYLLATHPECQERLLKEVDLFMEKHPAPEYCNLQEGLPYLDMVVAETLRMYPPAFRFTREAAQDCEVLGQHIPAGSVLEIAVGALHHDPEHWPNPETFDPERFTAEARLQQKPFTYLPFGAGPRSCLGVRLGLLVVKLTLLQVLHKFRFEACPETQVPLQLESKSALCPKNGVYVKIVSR
Description: Eight week old Sprague-Dawley male rats were used in this example. The rats were anesthetized with pentobarbital sodium. The blood was collected from the abdominal aorta using a heparinized syringe, and centrifuged at 1,300 rpm for 7 minutes to obtain platelet rich plasma (PRP). PRP was suspended in an equivalent volume of a buffer containing 25 mmol/l Tris-HCl, 130 mmol/l sodium chloride and 0.3 mmol/l EDTA (pH 7.4)(buffer A), followed by centrifugation at 4° C., at 1,500 rpm for 5 minutes. This procedure was repeated twice, and PRP was finally suspended in a buffer containing 25 mmol/l Tris-HCl, 130 mmol/l, 0.1% glucose and 0.1% albumin (pH7.4)(buffer B).
5×10^6 cells/mm^3 PRP preparation in buffer B was divided into each well of a 96-well plate in an amount of 150 μl/well. Each test substance was prepared at a final concentration of 10 μmol/l and added to the PRP preparation in an amount of 50 μl/well. Immediately after addition of the test substance, 5 μl of an aggregation-inducing agent, type IV collagen (1 mg/ml) or arachidonic acid (50 mmol/l), was added and incubated for 10 minutes. 20 μl of an EDTA-indomethacin solution was added to the each well to stop the reaction. The supernatant was assayed for thromboxane B2 (TXB2), stable metabolite of thromboxane A2 (TXA2), using a TXB2 measurement kit (Cayman).

[2] = arachidonic acid, 10 minutes, read-out: TXB2 induced by arachidonic acid (Inhibitory rate; %)
[3] = type IV collagen, 10 minutes, read-out: TXB2 induced by collagen (Inhibitory rate; %)
[4] = summary of Table 3, read-out: inhibitory activity against TXA2 production mediated by collagen or arachidonate

## CCOC(=O)COc1ccc(/C=C/C(=O)N(C)Cc2cccnc2)cc1 [Example 2, Ethyl [4-[(E)-2-[N-Methyl-N-(3-pyridylmethyl)carbamoyl]ethenyl]phenoxy]-acetate]
IL-10
  inhibition at 10 µg/mL: 27.8%
  inhibition at 50 µg/mL: 51.4%
  inhibition at 100 µg/mL: 50%
IL-12; 48 hours
  inhibition at 10 µg/mL: 35%
  inhibition at 50 µg/mL: 63.8%
  inhibition at 100 µg/mL: 65.4%
IL-6
  inhibition at 10 µg/mL: 58.8%
  inhibition at 50 µg/mL: 78.9%
  inhibition at 100 µg/mL: 88%

## COC(=O)COc1ccc(/C=C/C(=O)NCc2cccnc2)cc1 [Example 7, methyl [4-[(E)-2-[N-(3-pyridylmethyl)carbamoyl]ethenyl]phenoxy]acetate]
IL-10
  inhibition at 1 µg/mL: 17.9%
  inhibition at 5 µg/mL: 1.3%
  inhibition at 10 µg/mL: 25.4%
IL-12; 48 hours
  inhibition at 1 µg/mL: 28.4%
  inhibition at 5 µg/mL: 40.1%
  inhibition at 10 µg/mL: 52.5%
IL-6
  inhibition at 1 µg/mL: 13.5%
  inhibition at 5 µg/mL: 31.5%
  inhibition at 10 µg/mL: 32.5%
[1]
  Inhibitory rate (%) of excreted urinary protein level: 50%

## CCOC(=O)COc1ccc(/C=C/C(=O)NCCc2cccnc2)cc1 [Example 10]
IL-10
  inhibition at 10 µg/mL: 29.5%
  inhibition at 50 µg/mL: 33.3%
  inhibition at 100 µg/mL: 27.8%
IL-12; 48 hours
  inhibition at 10 µg/mL: 30.3%
  inhibition at 50 µg/mL: 27.8%
  inhibition at 100 µg/mL: 35%
IL-6
  inhibition at 10 µg/mL: 61.2%
  inhibition at 50 µg/mL: 63.5%
  inhibition at 100 µg/mL: 61.6%
[1]
  Inhibitory rate (%) of excreted urinary protein level: 56%

## COC(=O)COc1ccc(/C=C/C(=O)NCCc2ccccn2)cc1 [Example 16]
IL-10
  inhibition at 1 µg/mL: 49.9%
  inhibition at 5 µg/mL: 50.1%
  inhibition at 10 µg/mL: 34.9%
IL-12; 48 hours
  inhibition at 1 µg/mL: 31.4%
  inhibition at 5 µg/mL: 47.4%
  inhibition at 10 µg/mL: 40.3%
IL-6
  inhibition at 1 µg/mL: 26.1%
  inhibition at 5 µg/mL: 41.3%
  inhibition at 10 µg/mL: 79%
[1]
  Inhibitory rate (%) of excreted urinary protein level: 42%

## COC(=O)COc1ccc(/C=C/C(=O)NCc2ccccn2)cc1 [Example 29]
IL-10
  inhibition at 10 µg/mL: -25.7%
IL-12; 48 hours
  inhibition at 10 µg/mL: 37.6%
IL-6
  inhibition at 10 µg/mL: -9.5%

## COC(=O)COc1ccc(/C=C/C(=O)NCCc2ccncc2)cc1 [Example 30]
IL-10
  inhibition at 10 µg/mL: -38.9%
IL-12; 48 hours
  inhibition at 10 µg/mL: 71.7%
IL-6
  inhibition at 10 µg/mL: 58.8%

## Cl.O=C(O)COc1ccc(/C=C/C(=O)NCc2cccnc2)cc1 [Example 36, [4-[(E)-2-[N-(3-pyridylmethyl)carbamoyl]ethenyl]phenoxy]acetic acid hydrochloride]
IL-10
  inhibition at 10 µg/mL: -45.8%
  inhibition at 50 µg/mL: -13%
  inhibition at 100 µg/mL: 22.2%
IL-12; 48 hours
  inhibition at 10 µg/mL: 52.1%
  inhibition at 50 µg/mL: 82.1%
  inhibition at 100 µg/mL: 64%
IL-6
  inhibition at 10 µg/mL: 53.1%
  inhibition at 50 µg/mL: 56.7%
  inhibition at 100 µg/mL: 21.7%
[1]
  Inhibitory rate (%) of excreted urinary protein level: 29%

## O=C(O)COc1ccccc1/C=C/C(=O)NCc1cccnc1 [Example 37]
Thromboxane A2 Synthase; [2]
  inhibition at 10 µM: 26%
Thromboxane A2 Synthase; [3]
  inhibition at 10 µM: 26%

## NC(=O)COc1ccc(/C=C/C(=O)NCc2cccnc2)cc1 [Example 41]
Thromboxane A2 Synthase; [2]
  inhibition at 10 µM: 36%
Thromboxane A2 Synthase; [3]
  inhibition at 10 µM: 14%

## O=C(/C=C/c1ccccc1OCC(=O)NO)NCc1cccnc1 [Example 53]
Thromboxane A2 Synthase; [2]
  inhibition at 10 µM: 56%
Thromboxane A2 Synthase; [3]
  inhibition at 10 µM: 43%
Thromboxane A2 Synthase; [4]
  inhibition at 10 µM: ≥ 50%

## CNC(=S)COc1ccccc1/C=C/C(=S)NCc1cccnc1 [Example 65, (E)-3-[2-[[N-(Methyl)thiocarbamoyl]methoxy]phenyl]-N-(3-pyridylmethyl)-2-propenoic Acid Thioamide]
Thromboxane A2 Synthase; [2]
  inhibition at 10 µM: 23%
Thromboxane A2 Synthase; [3]
  inhibition at 10 µM: 12%

## CN(Cc1cccnc1)C(=O)/C=C/c1ccc(OCC(=O)O)cc1 [Example 72]
Thromboxane A2 Synthase; [2]
  inhibition at 10 µM: 61%
Thromboxane A2 Synthase; [3]
  inhibition at 10 µM: 46%
Thromboxane A2 Synthase; [4]
  inhibition at 10 µM: ≥ 50%

## O=C(O)COc1ccc(/C=C/C(=O)NCCc2ccccn2)cc1 [Example 73]
Thromboxane A2 Synthase; [2]
  inhibition at 10 µM: 23%
Thromboxane A2 Synthase; [3]
  inhibition at 10 µM: 47%

## O=C(/C=C/c1ccc(OC(F)(F)C(=O)O)cc1)NCc1cccnc1 [Example 74]
IL-12; 48 hours
  inhibition at 10 µM: 51.1%

## COC(=O)/C=C/c1ccc(/C=C/C(=O)NCc2cccnc2)cc1 [Example 76]
IL-12; 48 hours
  inhibition at 10 µM: 50%

## COC(=O)CCc1ccc(/C=C/C(=O)NCCc2ccccn2)cc1 [Example 78]
IL-12; 48 hours
  inhibition at 10 µM: 49.2%

## O=C(O)CCc1ccc(/C=C/C(=O)NCCc2ccccn2)cc1 [Example 79]
IL-12; 48 hours
  inhibition at 10 µM: 43%

## COC(=O)CC(O)c1ccc(/C=C/C(=O)NCc2cccnc2)cc1 (centres unmarked) [Example 80, methyl 3-hydroxy-3-[4-[2-[N-(3-pyridylmethyl)carbamoyl]ethenyl]phenyl]propionate]
IL-12; 48 hours
  inhibition at 10 µM: 52.3%

## CCOC(=O)COc1ccc(/C=C(\C#N)C(=O)NCc2cccnc2)cc1 [Example 81, Ethyl [4-[2-Cyano-2-[N-(3-pyridylmethyl)carbamoyl]ethenyl]phenoxy]acetate]
IL-12; 48 hours
  inhibition at 10 µM: 41%

## N#C/C(=C\c1ccc(OCC(=O)O)cc1)C(=O)NCc1cccnc1 [Example 82, Sodium [4-[2-Cyano-2-[N-(3-pyridylmethyl)carbamoyl]ethenyl]phenoxy]acetate]
IL-12; 48 h
  inhibition at 10 µM: 30.7%

## N#C/C(=C\c1ccc(OCC(=O)O)cc1)C(=O)NCc1cccnc1 [Example 83, [4-[2-Cyano-2-[N-(3-pyridylmethyl)carbamoyl]ethenyl]phenoxy]acetic Acid]
IL-12; 48 hours
  inhibition at 10 µM: 40.9%

## CN(C)C(=O)COc1ccc(/C=C(\C#N)C(=O)NCc2cccnc2)cc1 [Example 84]
IL-12; 48 hours
  inhibition at 10 µM: 38.9%

## CCOC(=O)COc1ccc(/C(C)=C/C(=O)NCc2cccnc2)cc1 [Example 85, Ethyl [4-[(E)-1-Methyl-2-[N-(3-Pyridylmethyl)carbamoyl]ethenyl]phenoxy]acetate]
IL-12; 48 hours
  inhibition at 10 µM: 47.4%

## O=C(O)CNc1ccc(/C=C/C(=O)NCc2cccnc2)cc1 [Example 88, [[4-[(E)-2-[N-(3-Pyridylmethyl)carbamoyl]ethenyl]phenyl]amino]acetic Acid]
IL-12; 48 hours
  inhibition at 10 µM: 26.4%
